Reference: the NIST ThermoML archive (doi:10.1016/j.jct.2016.07.009)
± gives the expanded uncertainty stated by the source.

Assays:
[1] = Crystal; DTA
[2] = Molar enthalpy of transition or fusion; settings: Crystal; DSC

For Nc1ccc([N+](=O)[O-])cc1[N+](=O)[O-] [2,4-dinitroaniline], the Normal melting temperature [1] was 178.1 ± 1.1 °C and the “Molar enthalpy of transition or fusion” value [2] was 5.93 ± 0.227 kcal/mol.
